We go through two molecules from patent EP4624457A1, “I[…] DERIVATIVES, I[…] NEURODEGENERATIVE DISEASES” (Centre National de la Recherche Scientifique, priority 2024, dated 2025).

The test system of this data set is A2780 ovarian carcinoma cells. Put plainly: Phosphatidylserine exposure assay (FITC-Annexin V / propidium iodide, flow cytometry). Format: cell-based. As to the method: • Figure 1 represents the chemical structure of ingrilimine according to compound (Illa) formula. • Figure 2 represents the cytotoxic activity of ingrilimine. A2780 ovarian and HT29 colorectal carcinoma cells were grown in RPMI 1640 supplemented with 10% fetal calf serum (FCS) and 1% glutamine. U87-MG glioblastoma cells were grown in Dulbecco minimal essential medium containing 4.5 g/L glucose, 10% FCS and 1% glutamine at 37 °C in a humidified atmosphere containing 5% CO2. For IC50 determination, the cells were seeded in 96-well plates (3 × 10^3 cells/well) containing 90 µL of growth medium. After 24 h of culture, the cells were treated with ingrilimine at 10 different final concentrations. Cell viability was determined by luminescence after 72 h incubation. (a) Effect of ingrilimine on A2780 ovarian carcinoma cells. (b) Effect of ingrilimine on U87-MG glioblastoma cells. (c) Effect of ingrilimine on U87-MG glioblastoma cells • Figure 3a-3f represent the mitochondrial dysfunction provoked by ingrilimine. […] Sector Q normal cells that accumulated the JC-1 dye (fluorescence emission 590 nm). […] (a) Non-treated cells incubated with the carrier (DMSO) for 24 h. (b) HCT116 cells incubated with 10 nN ingrilimine for 24 h. (c) HCT116 cells incubated with 250 nM ingrilimine for 24 h. (d) Non-treated cells incubated with the carrier (DMSO) for 48 h. (e) HCT116 cells incubated with 10 nN ingrilimine for 48 h. (f) HCT116 cells incubated with 250 nM ingrilimine for 48. Changes in fluorescence emission were recorded by flow cytometry using the JC-1 mithocondrial membrane potential-dependent fluorescent dye. NT = non-treated cells; IngX = ingrilimine. • Figure 4a-4f represents phosphatidylserine exposure provoked by ingrilimine. […] Quadrants D1 and D2 with dead or necrotic cells, quadrant D3 with normal cells and quadrant D4 with apoptotic cells following phosphatidylserine exposure. (a) Non-treated A2780 cells incubated with the carrier (DMSO) for 24h. (b) A2780 cells incubated with 10 nM ingrilimine for 24 h. (c) A2780 cells incubated with 250 nM ingrilimine for 24 h. (d) Non-treated A2780 cells incubated with the carrier (DMSO) for 48 h. (e) A2780 cells incubated with 10 nM ingrilimine for 48 h. (f) A2780 cells incubated with 250 nM ingrilimine for 48. […] exposure in A2780 cell was quantified by flow cytometry using FITC-Annexin V. Dead or necrotic cells were detected using the vital dye propridium iodide. NT = non-treated cells; IngX = ingrilimine. • Figure 5 represents the antagonistic activity of ingrilimine (named "IngX" in the figure) and portimine (named "Port A" in the figure) against nicotinic acetylcholine receptors recorded by two-electrodes voltage clamp electrophysiology on Xenopus laevis oocytes. Clamped Xenopus laevis oocytes having incorporated the muscle (α1)2βγδ nAChR subtype from Torpedo marmorata (filled squares), or expressing the neuronal α3β2 nAChR subtype from rat (filled triangles), or expressing the human neuronal α7 nAChR subtype (filled circles) were exposed to portimine (100 nM - 1 mM) for 45 seconds. […] A Xenopus laevis oocyte expressing the human α7 nAChR subtype was exposed to 100 µM acetylcholine triggering the immediate opening of the receptor's channel (black bold line) followed by the very-fast closure of the channel ([…]) that became insensitive to acetylcholine during the rest of the 5 seconds exposure (desensitization). When a Xenopus laevis oocyte expressing the human α7 nAChR subtype was exposed first to 10 nM ingrilimine for 45 seconds and then to a mixture (Mix) containing 10 nM ingrilimine and 100 µM acetylcholine, the receptor's channel was closed denoting a strong antagonistic activity of the tested toxin against the α7 nAChR subtype (dotted line). […]

Values joined by “and” are separate entries in the source; they are usually repeats but may differ in a detail not shown here. Equal values may be shown once.

As to `C=CC1=C[C@@H]2C[C@@H](O)[C@@H](O)/C(C)=C/C/C(C)=C/CCC3=NCCC[C@]32CC1` [Ingrilimine, ingrilimine], the “Annexin V+/IP” value was 1.1% (10 nM, 24 h); 0.8% (10 nM, 48 h); 3.4% (50 nM, 24 h); 10% (50 nM, 48 h); 9.8% (100 nM, 24 h); 20.4% (100 nM, 48 h). The “Annexin V+/IP” value is, setting by setting: (250 nM, 24 h) 13.1%; (250 nM, 24 h, listed as ingrilimine) -13%; (250 nM, 48 h) 31.3%; (500 nM, 24 h) 27.1%. Further, the “percentage of propidium iodide positive and annexin V positive” value (250 nM, 24 h, quadrant D2, late stage apoptotic, dead or necrotic cells) worked out at 3.8%; the “percentage of propidium iodide positive and annexin V positive” value (250 nM, 48 h, quadrant D2) came to 17%. Besides, the viability at 0.25 µM (Homo sapiens, A2780, 48 h, read-out: viable cells) turned out to be 45%.

Consider `C=CC1=C[C@@H]2[C@@H]3O[C@]4(CC[C@H](O4)[C@@H](C)C[C@@H](O)C3=O)C[C@H](O)C3=NCC[C@@]32CC1` [Portimine-A], for which the “Annexin V+/IP” value runs as follows: (1 nM, 24 h, early apoptotic cells (annexin V positive, propidium iodide negative)) 3.4%; (1 nM, 48 h) 1.7%; (5 nM, 24 h) 6.4%; (5 nM, 48 h) 18.4%; (10 nM, 24 h) 13.1%; (10 nM, 48 h) 24.1%. Besides, the “Annexin V+/IP” value by setting is: (20 nM, 24 h) 13%; (20 nM, 48 h, listed as Portimine) 39% and 39.3%; (50 nM, 24 h) 22.8%. Also, the “percentage of late-stage apoptotic cells and or necrotic cells” value by setting is: (20 nM, 24 h) 4.3%; (20 nM, 48 h) 15%. The molecule further registered a viable cells (50 nM, 48 h treatment, quadrant D3) of 40%.
